Read-outs that look alike come from different tables or passages of the source.
How the values were obtained:
HCT116 MTAP KO cells = assay: Inhibitory activity against cell proliferation (CellTiter Glo, 6 days), HCT116 MTAP KO; format: cell-based; details: for IC50: Homo sapiens, HCT-116, 144 h, HCT116 MTAP KO cells, 6 days, CellTiter Glo, read-out: HCT116 MTAP KO IC50; for Selectivity HCT 116-WT/ HCT116 MTAP KO: ratio of IC50 HCT116-WT / HCT116 MTAP KO
Outline: (§1)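 Luminescence read-out (CellTiter Glo, 10 min shaking at room temperature) after 6 days of compound exposure; IC50 fitted against DMSO controls. Top dose 10000 nM, 4-fold steps, 8 points; 250 cells/well in McCoy's 5A + 10% FBS.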

HCT116-WT cells = assay: Inhibitory activity against cell proliferation (CellTiter Glo, 6 days), HCT116-WT; format: cell-based; details: 144 h, HCT116-WT cells, 6 days, CellTiter Glo; read-out: HCT116-WT IC50
Outline: as §1

PRMT5-MTA = PRMT5-MTA (Homo sapiens, UniProt O14744); assay: Enzymatic inhibitory activity against PRMT5-MTA (AlphaScreen); format: biochemical
Outline: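 PRMT5/[…] (1 nM) was preincubated for 30 min at room temperature with 1 µM […] and 2.5 µM SAM, then exposed to compound (10-point, 3-fold from 1000 nM) for 15 min at 23 °C. Histone H4 substrate (5 nM) was added and reacted for 45 min at 23 °C. Symmetric dimethyl-R3 H4 was detected by AlphaScreen and IC50 calculated.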

Sequence of PRMT5-MTA (O14744 whole entry): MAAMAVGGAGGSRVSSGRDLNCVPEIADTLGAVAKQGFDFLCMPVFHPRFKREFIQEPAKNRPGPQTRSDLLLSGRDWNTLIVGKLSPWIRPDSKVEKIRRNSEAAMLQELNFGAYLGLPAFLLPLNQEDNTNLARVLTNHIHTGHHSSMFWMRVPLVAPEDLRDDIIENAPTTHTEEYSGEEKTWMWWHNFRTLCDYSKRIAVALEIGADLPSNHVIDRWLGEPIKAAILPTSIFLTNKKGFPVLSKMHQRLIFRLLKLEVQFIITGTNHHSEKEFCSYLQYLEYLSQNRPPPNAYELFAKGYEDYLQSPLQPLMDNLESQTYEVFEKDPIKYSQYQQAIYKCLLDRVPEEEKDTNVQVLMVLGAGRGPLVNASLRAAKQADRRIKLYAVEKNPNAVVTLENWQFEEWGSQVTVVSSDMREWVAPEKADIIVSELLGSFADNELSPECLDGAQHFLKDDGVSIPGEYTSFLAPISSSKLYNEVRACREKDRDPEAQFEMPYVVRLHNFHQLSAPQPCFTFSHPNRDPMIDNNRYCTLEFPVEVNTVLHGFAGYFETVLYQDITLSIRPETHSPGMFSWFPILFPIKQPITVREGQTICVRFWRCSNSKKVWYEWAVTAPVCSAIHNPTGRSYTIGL
Sequence of PRMT5-MTA (Q9BQA1 whole entry partner): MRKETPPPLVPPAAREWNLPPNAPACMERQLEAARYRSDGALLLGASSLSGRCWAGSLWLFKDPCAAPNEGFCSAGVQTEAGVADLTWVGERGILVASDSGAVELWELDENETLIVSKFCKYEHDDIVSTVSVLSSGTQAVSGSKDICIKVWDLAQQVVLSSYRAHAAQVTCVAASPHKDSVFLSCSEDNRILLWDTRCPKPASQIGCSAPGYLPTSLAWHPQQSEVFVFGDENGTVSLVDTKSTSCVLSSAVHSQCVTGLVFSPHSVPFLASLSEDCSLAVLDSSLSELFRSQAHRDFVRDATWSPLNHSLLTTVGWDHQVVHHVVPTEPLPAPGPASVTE

| Structure (SMILES) | IC50 (HCT116 MTAP KO cells) [nM] | Selectivity HCT 116-WT/ HCT116 MTAP KO (HCT116 MTAP KO cells) | IC50 (HCT116-WT cells) [nM] | IC50 (PRMT5-MTA; read-out: IC50) [nM] | IC50 (PRMT5-MTA) [nM] |
| --- | --- | --- | --- | --- | --- |
| Cc1cc2nc(N)c3cnn(C)c3c2cc1C(=O)N1CC(C)CN1c1cccc(Br)n1 (centres unmarked) [Example 404, (4-amino-1,7-dimethyl-1H-pyrazolo[4,3-c]quinolin-8-yl)(2-(6-bromopyridin-2-yl) -4-methylpyrazolidin-1-yl)methanone] | 4.6 | 24.78 | 114 | 6.6 |  |
| Cc1cc2nc(N)c3cnn(C)c3c2cc1C(=O)N1CC(C)CN1c1cccc(C2CC2)n1 (centres unmarked) [Example 405, (4-amino-1,7-dimethyl-1H-pyrazolo[4,3-c]quinolin-8-yl)(2-(6-cyclopropylpyridin-2-yl) -4-methylpyrazolidin-1-yl)methanone] | 29 | 31.93 | 926 | 12.3 |  |
| COc1cccc(N2CC(C)CN2C(=O)c2cc3c(cc2C)nc(N)c2cnn(C)c23)n1 (centres unmarked) [Example 406] | 23 | 39.39 | 906 |  | 4.3 |
| Cc1cc2nc(N)c3cnn(C)c3c2cc1C(=O)N1CC(CC(F)(F)F)CN1c1ncccc1F (centres unmarked) [Example 408] | 10 | 20.30 | 203 |  | 4.8 |
| Cc1cc2nc(N)c3cnn(C)c3c2cc1C(=O)N1CC2(CN1c1ncccc1F)CC(F)(F)C2 [Example 410, (4-amino-1,7-dimethyl-1H-pyrazolo[4,3-c]quinolin-8-yl)(2,2-difluoro-7-(3-fluoropyridin-2-yl)-6,7-diazaspiro[3.4]octan-6-yl)methanone] | 9 | 24.33 | 219 | 5.2 |  |
| Cn1ncc2c(N)nc3cc(Cl)c(C(=O)N4CC5(CN4c4ncccc4F)CC(F)(F)C5)cc3c21 [Example 411, (4-amino-7-chloro-1-methyl-1H-pyrazolo [4,3-c]quinolin-8-yl)(2,2-difluoro-7-(3-fluoropyridin-2-yl)-6,7-diazaspiro[3.4]octan-6-yl)methanone] | 15 | 14.73 | 221 | 6.3 |  |
| Cn1ncc2c(N)nc3cc(Cl)c(C(=O)N4CC5(CN4c4ncc(Cl)cc4F)CC(F)(F)C5)cc3c21 [Example 412, (4-amino-7-chloro-1-methyl-1H-pyrazolo [4,3-c]quinolin-8-yl)(7-(5-chloro-3-fluoropyridin-2-yl)-2,2-difluoro-6,7-diazaspiro[3.4]octan-6-yl)methanone] | 10 | 17.90 | 179 | 6.2 |  |
| Cn1ncc2c(N)nc3cc(Cl)c(C(=O)N4CC5(CN4c4ncc(Br)cc4F)CC(F)(F)C5)cc3c21 [Example 413, (4-amino-7-chloro-1-methyl-1H-pyrazolo [4,3-c]quinolin-8-yl)(7-(5-bromo-3-fluor opyridin-2-yl)-2,2-difluoro-6,7-diazaspiro[3.4]octan-6-yl)methanone] | 26 | 15.00 | 390 | 4.3 |  |
| Cn1ncc2c(N)nc3cc(Cl)c(C(=O)N4CC5(CN4c4cccc(F)n4)CC(F)(F)C5)cc3c21 [Example 414, (4-amino-7-chloro-1-methyl-1H-pyrazolo [4,3-c]quinolin-8-yl)(2,2-difluoro-7-(6-fluoropyridin-2-yl)-6,7-diazaspiro[3.4]octan-6-yl)methanone] | 18 | 16.94 | 305 | 6.2 |  |
| CCC1CN(C(=O)c2cc3c(cc2C)nc(N)c2cnn(C)c23)N(c2ncccc2F)C1 (centres unmarked) [Example 415, (4-amino-1,7-dimethyl-1H-pyrazolo[4,3-c]quinolin-8-yl)(4-ethyl-2-(3-fluoropyridin-2-yl)pyrazolidin-1-yl)methanone] | 19 | 42.63 | 810 | 2.6 |  |
| COC1CN(C(=O)c2cc3c(cc2C)nc(N)c2cnn(C)c23)N(c2ncccc2F)C1 (centres unmarked) [Example 417, (4-amino-1,7-dimethyl-1H-pyrazolo[4,3-c]quinolin-8-yl)(2-(3-fluoropyridin-2-yl)-4-methoxypyrazolidin-1-yl)methanone] | 20 | 39.50 | 790 | 3.8 |  |

— EP4745134A1 (Jiangsu Yahong Meditech Co., Ltd., priority 2023, dated 2025)
